This note sets out measurements from patent US20250230165A1, “HETEROCYCLIC COMPOUNDS FOR USE IN THE TREATMENT OF CANCER” (ARTIOS PHARMA LIMITED, priority 2021, published 2025).

The target of the test is T1, Human Polθ polymerase domain (aa1820-2590) (Homo sapiens, UniProt O75417).
T1 construct: Human Polθ polymerase domain (aa1820-2590) was expressed in E. coli; made in house; host or cells: E. coli
T1 sequence (O75417 1820-2590): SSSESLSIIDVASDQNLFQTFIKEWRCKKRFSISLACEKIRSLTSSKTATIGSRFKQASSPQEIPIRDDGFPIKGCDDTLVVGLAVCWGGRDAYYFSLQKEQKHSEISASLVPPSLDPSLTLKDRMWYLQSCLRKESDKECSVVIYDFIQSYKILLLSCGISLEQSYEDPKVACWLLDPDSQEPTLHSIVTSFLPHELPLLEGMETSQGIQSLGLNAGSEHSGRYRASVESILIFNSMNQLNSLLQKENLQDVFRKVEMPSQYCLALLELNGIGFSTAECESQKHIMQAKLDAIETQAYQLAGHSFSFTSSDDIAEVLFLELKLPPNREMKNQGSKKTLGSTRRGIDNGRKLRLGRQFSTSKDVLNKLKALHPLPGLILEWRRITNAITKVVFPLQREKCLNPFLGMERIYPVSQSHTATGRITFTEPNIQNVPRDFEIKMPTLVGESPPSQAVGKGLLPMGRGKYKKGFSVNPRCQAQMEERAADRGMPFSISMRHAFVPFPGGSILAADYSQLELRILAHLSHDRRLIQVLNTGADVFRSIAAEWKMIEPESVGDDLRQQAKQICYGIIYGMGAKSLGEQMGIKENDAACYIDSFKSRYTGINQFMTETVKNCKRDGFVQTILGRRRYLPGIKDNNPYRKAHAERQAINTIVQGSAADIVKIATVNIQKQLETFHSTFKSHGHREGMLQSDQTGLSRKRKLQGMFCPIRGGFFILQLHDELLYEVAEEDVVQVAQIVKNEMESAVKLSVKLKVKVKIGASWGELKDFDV
Briefly: Polθ Polymerase Domain Kinact/KI Assay (PicoGreen). It is filed as biochemical. Conditions: 0.8 nM Polθ, 100 nM DNA substrate, kobs vs [I] fit for 2-step covalent inhibitor. The gist of the method: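 Enzyme 0.8 nM, annealed DNA substrate 100 nM, […]; 25 mM Tris pH 7.5, 5% glycerol, 0.01% Triton X-100, 0.1 mg/ml BSA, 1 mM DTT, 1% DMSO. Quench with EDTA at timepoints to 60 min; PicoGreen read. kobs from time courses → Kinact/KI.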
In turn, `C=CC(=O)N1Cc2nc(CN3C[C@H]4CC(=O)N(c5cc(C(F)(F)F)cc(C)n5)[C@@H]4C(=O)N(C)c4cccc(C)c43)cn2C[C@H]1C(F)(F)F` (racemic) [Example 322a, (3aR,11aS)-5-(((S/R)-7-acryloyl-6-(trifluoromethyl)-5,6,7,8-tetrahydro-imidazo[1,2-a]pyr-azin-2-yl)methyl)-6,10-dimethyl-1-(6-methyl-4-(trifluoro-methyl)pyridin-2-yl)-1,3a,4,5,10,11a-hexahydro-2H-benzo[b]pyrrolo [2,3-f][1,4]diazo-cine-2,11(3H)-dione] displayed a Kinact/Kl of 1.56e+06 M⁻¹ s⁻¹.

The compound `C=CC(=O)N1Cc2nc(CN3C[C@H]4CC(=O)N(c5cc(C(F)(F)F)cc(C)n5)[C@@H]4C(=O)N(C)c4cccc(C)c43)cn2C[C@@H]1C(F)(F)F` (racemic) [Example 322b, (3aR,11aS)-5-(((R/S)-7-acryloyl-6-(trifluoromethyl)-5,6,7,8-tetrahydro-imidazo[1,2-a]pyr-azin-2-yl)methyl)-6,10-dimethyl-1-(6-methyl-4-(trifluoro-methyl)pyridin-2-yl)-1,3a,4,5,10,11a-hexahydro-2H-benzo[b]pyrrolo[2,3-f][1,4]diazocine-2,11(3H)-dione] yielded a Kinact/Kl of 1.13e+06 M⁻¹ s⁻¹.

Consider `C=CC(=O)N1CCOC[C@H]1c1ccc(CN2C[C@H]3CC(=O)N(c4cc(C(F)(F)F)cc(C)n4)[C@@H]3C(=O)N(C)c3cccc(C)c32)cc1` (racemic) [Example 323a, (3aR,11aS)-5-(4-((R/S)-4-acryloyl-morpholin-3-yl)-benzyl)-6,10-di-methyl-1-(6-meth-yl-4-(trifluorometh-yl)pyridin-2-yl)-1,3a,4,5,10,11a-hexahydro-2H-benzo[b]pyrrolo [2,3-f][1,4]diazo-cine-2,11(3H)-dione], for which the Kinact/Kl stood at 640000 M⁻¹ s⁻¹.

`C=CC(=O)N1CCOC[C@@H]1c1ccc(CN2C[C@H]3CC(=O)N(c4cc(C(F)(F)F)cc(C)n4)[C@@H]3C(=O)N(C)c3cccc(C)c32)cc1` (racemic) [Example 323b, (3aR,11aS)-5-(4-((S/R)-4-acryloyl-morpholin-3-yl)-benzyl)-6,10-dimeth-yl-1-(6-methyl-4-(trifluoromethyl)-pyridin-2-yl)-1,3a,4,5,10,11a-hexahydro-2H-benzo[b]pyrrolo [2,3-f][1,4]diazocine-2,11(3H)-dione] returned a Kinact/Kl of 330000 M⁻¹ s⁻¹.

`C=CC(=O)N1CCOC[C@H]1c1ccc(CN2C[C@H]3CC(=O)N(c4cc(C(F)(F)F)cc(C)n4)[C@@H]3C(=O)N(C)c3cccc(C)c32)cn1` (racemic) [Example 324a, (3aR,11aS)-5-((6-((R/S)-4-acryloyl-morpholin-3-yl)pyr-idin-3-yl)methyl)-6,10-dimethyl-1-(6-methyl-4-(trifluoro-methyl)pyridin-2-yl)-1,3a,4,5,10, 11a-hexahydro-2H-benzo[b]pyrrolo [2,3-f][1,4]diazo-cine-2,11(3H)-dione] gave a Kinact/Kl of 150000 M⁻¹ s⁻¹.

`C=CC(=O)N1CCOC[C@@H]1c1ccc(CN2C[C@H]3CC(=O)N(c4cc(C(F)(F)F)cc(C)n4)[C@@H]3C(=O)N(C)c3cccc(C)c32)cn1` (racemic) [Example 324b, (3aR,11aS)-5-((6-((S/R)-4-acryloyl-morpholin-3-yl)pyr-idin-3-yl)methyl)-6,10-dimethyl-1-(6-methyl-4-(trifluoro-methyl)pyridin-2-yl)-1,3a,4,5,10,11a-hexahydro-2H-benzo[b]pyrrolo [2,3-f][1,4]diazo-cine-2,11(3H)-dione] showed a Kinact/Kl of 470000 M⁻¹ s⁻¹.

The compound `C=C(CN(C)C)C(=O)N[C@H]1CCc2nc(CN3C[C@H]4CC(=O)N(c5cc(C(F)(F)F)cc(C)n5)[C@@H]4C(=O)N(C)c4cccc(C)c43)cn2C1` (racemic) [Example 329b, N-((S/R)-2-(((3aR, 11aS)-6,10-dimethyl-1-(6-methyl-4-(tri-fluoromethyl)pyridin-2-yl)-2,11-dioxo-1,2,3,3a,4,10,11,11a-octahydro-5H-benzo [b]pyrrolo[2,3-f][1,4]diazocin-5-yl)meth-yl)-5,6,7,8-tetrahydro-imidazo[1,2-a]pyr-idin-6-yl)-2-((dimeth-ylamino)methyl)-acrylamide] yielded a Kinact/Kl of 5.73e+06 M⁻¹ s⁻¹.

With `C=C(CN(C)C)C(=O)N[C@H]1CCn2cc(CN3C[C@H]4CC(=O)N(c5cc(C(F)(F)F)cc(C)n5)[C@@H]4C(=O)N(C)c4cccc(C)c43)nc2C1` (racemic) [Example 330a, N-((S/R)-2-(((3aR, 11aS)-6,10-dimethyl-1-(6-methyl-4-(trifluoromethyl)-pyridin-2-yl)-2,11-dioxo-1,2,3,3a,4,10, 11,11a-octahydro-5H-benzo[b]pyrrolo [2,3-f][1,4]diazocin-5-yl)methyl)-5,6,7,8-tetrahydroimidazo [1,2-a]pyridin-7-yl)-2-((dimethylamino)-methyl)acrylamide], the Kinact/Kl is 2.74e+06 M⁻¹ s⁻¹.

Compound `C=C(CN(C)C)C(=O)N[C@@H]1CCn2cc(CN3C[C@H]4CC(=O)N(c5cc(C(F)(F)F)cc(C)n5)[C@@H]4C(=O)N(C)c4cccc(C)c43)nc2C1` (racemic) [Example 330b, N-((R/S)-2-(((3aR, 11aS)-6,10-dimethyl-1-(6-methyl-4-(trifluoromethyl)pyr-idin-2-yl)-2,11-dioxo-1,2,3,3a,4,10,11,11a-octahydro-5H-benzo [b]pyrrolo[2,3-f][1,4]diazocin-5-yl)meth-yl)-5,6,7,8-tetrahydro-imidazo[1,2-a]pyridin-7-yl)-2-((dimethyl-amino)methyl)acryl-amide] yielded a Kinact/Kl of 1.15e+06 M⁻¹ s⁻¹.

Take `C=CC(=O)N1CC(O[C@H]2CN(CCN3C[C@H]4CC(=O)N(c5cc(C(F)(F)F)cc(C)n5)[C@@H]4C(=O)N(C)c4cccc(F)c43)C[C@@H]2O)C1` (relative stereo) [Example 11, (3aR,11aS)-5-(2-((rel-trans)-3-((1-acryloylazetidin-3-yl)oxy)-4-hydroxypyrrolidin-1-yl)ethyl)-6-fluoro-10-methyl-1-(6-methyl-4-(trifluoromethyl)pyridin-2-yl)-1,3a,4,5,10,11a-hexahydro-2H-benzo[b]pyrrolo[2,3-f][1,4]diazocine-2,11(3H)-dione]: the Kinact/Kl worked out at 400000 M⁻¹ s⁻¹.

In turn, `C=CC(=O)N1C[C@H]2CCN(CCN3C[C@H]4CC(=O)N(c5cc(C(F)(F)F)cc(C)n5)[C@@H]4C(=O)N(C)c4cccc(F)c43)C[C@H]2C1` (relative stereo) [Example 25a, (3aR,11aS)-5-(2-((3aS/R,7aS/R)-2-acryloyloctahydro-5H-pyrrolo[3,4-c]pyridin-5-yl)ethyl)-6-fluoro-10-methyl-1-(6-methyl-4-(trifluoromethyl)pyridin-2-yl)-1,3a,4,5,10,11a-hexahydro-2H-benzo[b]pyrrolo[2,3-f][1,4]diazocine-2, 11(3H)-dione] gave a Kinact/Kl of 200000 M⁻¹ s⁻¹.

As for `C=CC(=O)N1C[C@H]2CN(CCN3C[C@H]4CC(=O)N(c5cc(C(F)(F)F)cc(C)n5)[C@@H]4C(=O)N(C)c4cccc(F)c43)CCN2[C@H](C)C1` (relative stereo) [Example 64a, (3aR,11aS)-5-(2-((6R/S,9aR/S)-8-acryloyl-6-methyloctahydro-2H-pyrazino[1,2-a]pyrazin-2-yl)ethyl)-6-fluoro-10-methyl-1-(6-methyl-4-(trifluoromethyl)pyridin-2-yl)-1,3a,4,5,10,11a-hexahydro-2H-benzo[b]pyrrolo[2,3-f][1,4]diazocine-2,11(3H)-dione], the Kinact/Kl stood at 2.06e+06 M⁻¹ s⁻¹.

In turn, `C=CC(=O)N1CC[C@@H](O)[C@H](N(C)CCN2C[C@H]3CC(=O)N(c4cc(C(F)(F)F)cc(C)n4)[C@@H]3C(=O)N(C)c3cccc(Cl)c32)C1` (relative stereo) [Example 113, (3aR,11aS)-5-(2-(((rel-trans)-1-acryloyl-4-hydroxypiperidin-3-yl)(methyl)amino)ethyl)-6-chloro-10-methyl-1-(6-methyl-4-(trifluoromethyl)pyridin-2-yl)-1,3a,4,5,10,11a-hexahydro-2H-benzo[b]pyrrolo[2,3-f][1,4]diazocine-2,11(3H)-dione] returned a Kinact/Kl of 1.72e+06 M⁻¹ s⁻¹.

For `C=CC(=O)N1CC2(C1)C(C)N(CCN1C[C@H]3CC(=O)N(c4cc(C(F)(F)F)cc(C)n4)[C@@H]3C(=O)N(C)c3cccc(F)c31)C[C@H]1COCCN12` (single isomer, unassigned) [Example 7], the Kinact/Kl was found to be 410000 M⁻¹ s⁻¹.

`C=CC(=O)N1CC2(C1)[C@H](C)N(CCN1C[C@H]3CC(=O)N(c4cc(C(F)(F)F)cc(C)n4)[C@@H]3C(=O)N(C)c3cccc(F)c31)C[C@H]1COCCN12` (single isomer, unassigned) [Example 8]: the Kinact/Kl worked out at 2e+06 M⁻¹ s⁻¹.

Regarding `C=CC(=O)N1C[C@@H]2CN(CCN3C[C@H]4CC(=O)N(c5cc(C(F)(F)F)cc(C)n5)[C@@H]4C(=O)N(C)c4cccc(F)c43)CCN2C[C@@H]1C` (single isomer, unassigned) [Example 9], the Kinact/Kl stood at 600000 M⁻¹ s⁻¹.
